This note sets out measurements from ChEMBL document CHEMBL3045485, “Synthesis of combretastatin analogs: evaluation of in vitro anticancer activity and molecular docking studies” (Med Chem Res, 2012).

SMILES strings stand for the structures. Bounds are passed on as bounds.

Assay [1] concerns PC-3. Briefly: Cytotoxicity against Homo sapiens (human) PC3 cells assessed as growth inhibition at 1 x 10^-4 mole after 48 hr by SRB assay. Format: functional. A general note: Sulforhodamine B stains cellular protein and so reports cell mass.
Assay [2] deals with PC-3. Kind of assay: Cytotoxicity against Homo sapiens (human) PC3 cells assessed as growth inhibition at 5 x 10^-5 mole after 48 hr by SRB assay. Format: functional.
Assay [3] deals with A549. Briefly: Cytotoxicity against Homo sapiens (human) A549 cells assessed as growth inhibition at 1 x 10^-4 mole after 48 hr by SRB assay. It is filed as functional.
Assay [4] has as its system A549. Kind of assay: Cytotoxicity against Homo sapiens (human) A549 cells assessed as growth inhibition at 5 x 10^-5 mole after 48 hr by SRB assay. Format: functional.
The subject of assay [5] is THP-1. Kind of assay: Cytotoxicity against Homo sapiens (human) THP1 cells assessed as growth inhibition at 1 x 10^-4 mole after 48 hr by SRB assay. It is filed as functional.
Assay [6] deals with THP-1. Briefly: Cytotoxicity against Homo sapiens (human) THP1 cells assessed as growth inhibition at 5 x 10^-5 mole after 48 hr by SRB assay. It is filed as functional.
The test system of assay [7] is COLO 205. Kind of assay: Cytotoxicity against Homo sapiens (human) COLO205 cells assessed as growth inhibition at 1 x 10^-4 mole after 48 hr by SRB assay. It is filed as functional.
In assay [8] the test system is COLO 205. Kind of assay: Cytotoxicity against Homo sapiens (human) COLO205 cells assessed as growth inhibition at 5 x 10^-5 mole after 48 hr by SRB assay. It is filed as functional.
The test system of assay [9] is SF-295. Kind of assay: Cytotoxicity against Homo sapiens (human) SF295 cells assessed as growth inhibition at 1 x 10^-4 mole after 48 hr by SRB assay. Format: functional.
The subject of assay [10] is IGROV-1. Kind of assay: Cytotoxicity against Homo sapiens (human) IGROV1 cells assessed as growth inhibition at 5 x 10^-5 mole after 48 hr by SRB assay. It is filed as functional.
Assay [11] deals with IGROV-1. Kind of assay: Cytotoxicity against Homo sapiens (human) IGROV1 cells assessed as growth inhibition at 1 x 10^-4 mole after 48 hr by SRB assay. It is filed as functional.
In assay [12] the test system is MCF7. Briefly: Cytotoxicity against Homo sapiens (human) MCF-7 cells assessed as growth inhibition at 1 x 10^-4 mole after 48 hr by SRB assay. Format: functional.
Assay [13] has as its system MCF7. Kind of assay: Cytotoxicity against Homo sapiens (human) MCF-7 cells assessed as growth inhibition at 5 x 10^-5 mole after 48 hr by SRB assay. It is filed as functional.
In assay [14] the test system is SF-295. Kind of assay: Cytotoxicity against Homo sapiens (human) SF295 cells assessed as growth inhibition at 5 x 10^-5 mole after 48 hr by SRB assay. It is filed as functional.
In assay [15] the test system is COLO 205. Kind of assay: Cytotoxicity against Homo sapiens (human) COLO205 cells after 48 hr by SRB assay. Format: functional, cell-based. As to conditions: COLO 205, 48 h, pooled result: one value given for 7 cell lines, strains, targets or settings.
Assay [16] deals with PC-3. Briefly: Cytotoxicity against Homo sapiens (human) PC3 cells assessed as growth inhibition at 1 x 10^-5 mole after 48 hr by SRB assay. Format: functional.
The subject of assay [17] is MCF7. Briefly: Cytotoxicity against Homo sapiens (human) MCF-7 cells assessed as growth inhibition at 1 x 10^-5 mole after 48 hr by SRB assay. Format: functional.
For assay [18], the system named is IGROV-1. Briefly: Cytotoxicity against Homo sapiens (human) IGROV1 cells assessed as growth inhibition at 1 x 10^-5 mole after 48 hr by SRB assay. Format: functional.
Assay [19] concerns A549. Kind of assay: Cytotoxicity against Homo sapiens (human) A549 cells assessed as growth inhibition at 1 x 10^-5 mole after 48 hr by SRB assay. Format: functional.

As for `COc1ccc(OC)c(/C=C(\C(=O)O)c2ccccc2)c1`, the “growth inhibition (GI)” value came out at 0% in [1]; 0% in assay [2]; 10% in assay [3]; 0% in [4]; 4% in [5]; 0% in assay [6]. The “growth inhibition (GI)” value in [7] and in assay [8] was 0% throughout.
In general, IC50 refers to the concentration that inhibits the measured activity by half. Read a high IC50 as a need for much substance. `COc1cccc(/C=C(\C(=O)O)c2ccccc2)c1OC`: the “growth inhibition (GI)” value in [9] is on record as 24%; in assay [10] it was 6%; in assay [11], 11%; in assay [1] it was 4%; in assay [2] it was 2%; in [12], 52%. Moreover, the “growth inhibition (GI)” value in assay [13] is given as 25%; in assay [3], 89%; in assay [4], 60%; in assay [14] it was 8%. The compound also returned an IC50 in [15] of 3.9 µM.
For the compound `O=C(O)/C(=C\c1cccc2ccccc12)c1ccccc1`, the “growth inhibition (GI)” value in assay [1] amounted to 35%; in [2], 26%; in assay [3], 0%; in [4], 0%; in assay [5], 22%; in assay [6] it was 0%. In addition, the results for the “growth inhibition (GI)” value in [7] and in [8] were 70% and 51%, respectively. For the same compound, in assay [15], the IC50 was over 100 µM.
Consider `O=C(O)/C(=C\c1ccccc1Cl)c1ccccc1`, for which the “growth inhibition (GI)” value in assay [10] stood at 32%; in [11] it was 42%; in [1], 52%; in [2] it was 36%; in assay [12], 10%; in [13], 5%. The “growth inhibition (GI)” value in assay [3] and in [4] was 12% throughout.
Consider `O=C(O)/C(=C\c1cccc(Cl)c1)c1ccccc1`, for which the “growth inhibition (GI)” value in assay [10] was determined as 0%; in assay [11] it was 38%; in assay [1], 68%; in assay [2], 30%; in assay [12] it was 0%; in [13], 0%. Further, the “growth inhibition (GI)” value in assay [3] and in assay [4] was 32% in each case.
For `O=C(O)/C(=C\c1ccc2c(c1)OCO2)c1ccccc1`, the “growth inhibition (GI)” value is listed as 38% in assay [9]; 0% in assay [10]; 32% in assay [11]; 39% in assay [1]; 11% in assay [2]; 39% in [12]. For the same compound, the “growth inhibition (GI)” value in [13] turned out to be 32%; in [3], 45%; in [4], 0%; in assay [14], 15%.
For `CC(=O)Oc1ccccc1/C=C(\C(=O)O)c1ccccc1`, the “growth inhibition (GI)” value in assay [10] is reported as 6%; in [11] it was 18%; in assay [1], 60%; in [2] it was 53%; in assay [12], 20%; in assay [13], 6%. Also, the “growth inhibition (GI)” value in [3] and in assay [4] was 10% each time.
Turning to `O=C(O)/C(=C\c1ccccc1[N+](=O)[O-])c1ccccc1`, the “growth inhibition (GI)” value in assay [1] was found to be 22%; in assay [2], 10%; in assay [3] it was 25%; in [4] it was 15%; in assay [5], 0%; in assay [6], 0%. The “growth inhibition (GI)” value came to 60% in assay [7] and 32% in assay [8].
Regarding `CO[C@@]12[C@H](COC(N)=O)C3=C(C(=O)C(C)=C(N)C3=O)N1C[C@@H]1N[C@@H]12` [MITOMYCIN], the “growth inhibition (GI)” value in assay [16] turned out to be 58%; in assay [17], 65%.
In the case of `COc1cc(/C=C(\C(=O)O)c2ccccc2)cc(OC)c1OC`, the “growth inhibition (GI)” value is 25% in assay [9]; 0% in assay [10]; 1% in assay [11]; 22% in assay [1]; 10% in [2]; 63% in assay [12]. The “growth inhibition (GI)” value is given as 54% in [13], 65% in assay [3], 21% in assay [4] and 13% in assay [14]. The IC50 in assay [15] was found to be 88 µM.
Consider `O=C(O)/C(=C\c1ccc(Cl)cc1)c1ccccc1`, for which the “growth inhibition (GI)” value in [10] is on record as 0%; in assay [11] it was 0%; in [1], 42%; in assay [2] it was 14%; in [12] it was 22%; in assay [13] it was 10%. In addition, the “growth inhibition (GI)” value in [3] and in assay [4] was 61% each time. Moreover, the IC50 in assay [15] was 34 µM.
For the compound `COc1cc(OC)c(OC)cc1/C=C(\C(=O)O)c1ccccc1`, the “growth inhibition (GI)” value in assay [1] amounted to 28%; in assay [2], 4%; in assay [3], 20%; in assay [4] it was 0%; in [5], 21%; in [6] it was 0%. In addition, the entries for the “growth inhibition (GI)” value in assay [7] and in assay [8] were 16% and 5%, respectively.
Consider `O=C(O)/C(=C\C=C\c1ccccc1)c1ccccc1`, for which the “growth inhibition (GI)” value in assay [1] was found to be 9%; in assay [2], 0%; in [3], 43%; in assay [4], 10%; in assay [5] it was 35%; in assay [6] it was 8%. Further, the “growth inhibition (GI)” value in assay [7] stood at 44%; in assay [8], 15%.
`COc1ccc(/C=C(\C(=O)O)c2ccccc2)cc1O`: the “growth inhibition (GI)” value in [9] is 12%; in [10], 8%; in [11], 17%; in assay [1], 23%; in [2] it was 12%; in assay [12] it was 24%. Also, the “growth inhibition (GI)” value amounted to 14% in [13], 20% in assay [3], 0% in assay [4] and 0% in assay [14].
For `O=C(O)/C(=C\c1ccccc1)c1ccccc1`, the “growth inhibition (GI)” value is recorded as 25% in [9]; 0% in assay [10]; 0% in [11]; 4% in assay [1]; 0% in assay [2]; 41% in assay [12]. For the same compound, the “growth inhibition (GI)” value turned out to be 29% in assay [13], 54% in assay [3], 52% in assay [4] and 14% in [14]. In [15], this compound displayed an IC50 of 85.4 µM.
With `CC(=O)O[C@H]1C(=O)[C@@]2(C)[C@H]([C@H](OC(=O)c3ccccc3)[C@]3(O)C[C@H](OC(=O)[C@H](O)[C@@H](NC(=O)c4ccccc4)c4ccccc4)C(C)=C1C3(C)C)[C@]1(OC(C)=O)CO[C@@H]1C[C@@H]2O` [PACLITAXEL], the figures for the “growth inhibition (GI)” value in [18] and in assay [19] were 66% and 67%, respectively.
On to `COc1ccc(/C=C(\C(=O)O)c2ccccc2)c(OC)c1OC`, for which the “growth inhibition (GI)” value is 7% in assay [1]; 0% in assay [2]; 0% in [3]; 0% in assay [4]; 0% in assay [5]; 0% in assay [6]. Moreover, the “growth inhibition (GI)” value in [7] and in [8] was 0% each time.
As for `O=C(O)/C(=C\c1cccc(O)c1O)c1ccccc1`, the “growth inhibition (GI)” value came out at 15% in assay [10]; 31% in assay [11]; 74% in assay [1]; 31% in assay [2]; 26% in assay [12]; 14% in assay [13]. Moreover, the “growth inhibition (GI)” value in [3] and in assay [4] was 52% throughout. In assay [15], this compound showed an IC50 of 96.5 µM.
